Source: the METLIN SMRT retention time set (Domingo-Almenara et al. 2019)

Experiment: gradient 5% acetonitrile 3 min, to 50% in 2 min, to 85% in 15 min, held 3 min, 100 µL/min
Conditions: column: Zorbax Extend-C18 2.1 x 50 mm; eluents: water / acetonitrile, 0.1% formic acid
Summary of the method: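 Pure standards were analyzed in mixtures of ~100 molecules using HPLC coupled to a quadrupole time-of-flight mass spectrometer, in both positive and negative ionization mode. Separation used a Zorbax Extend-C18 column (2.1 × 50 mm, 1.8 μm) at 100 μL/min, with water and acetonitrile each containing 0.1% formic acid. Dead and dwell volumes were 40 μL and 900 μL, and data were collected over 3 months. Retention time was read from computationally picked adduct peaks, each inspected manually.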

Row | RP-LC retention time | SMILES
1 | 953 s | CC(C)CCNC(=O)C1(C)CN(S(=O)(=O)c2ccccc2)CC(=O)N1c1cccc(F)c1 (stereo unspecified)
2 | 703 s | Cc1oc(-c2[nH]ncc2C(=O)N(C)C)cc1S(=O)(=O)Nc1cccc(Cl)c1
3 | 967 s | O=C(NCc1ccco1)N1CCN(c2nc3ccccc3n(Cc3ccccc3)c2=O)CC1
4 | 902 s | COc1cccc2c1[C@@H]1CN(CCCCN3C(=O)NC4C(SC5NCC(c6ccccc6)NC54)C3=O)C[C@@H]1CO2 (stereo partly specified)
5 | 1070 s | O=C(c1ccco1)N1CCc2cc(-c3csc(C4CC4)n3)ccc21
6 | 605 s | COc1ccc(C(=O)N2C[C@@H]3C[C@H](NC(=O)c4cccnc4)[C@H]2C3)c(OC)c1
7 | 928 s | Cn1nc(-c2nc(C3CC3)no2)c2c1CCN(C(=O)c1ccc(Cl)s1)C2
8 | 739 s | COc1cccc(-c2nnc(Cc3nc(-c4ccncc4)no3)o2)c1
9 | 1410 s | CCOC(=O)c1ccccc1NC(=O)C1=Cc2ccccc2OC=C1
10 | 954 s | CC(C)OC(=O)c1cc2ccsc2n1CC(=O)NCc1ccc(F)cc1
11 | 711 s | Cn1cnc(S(=O)(=O)N2CCCN(S(=O)(=O)Cc3ccccc3)CCNC(=O)CC2c2ccccc2)c1 (stereo unspecified)
12 | 770 s | COc1cccc(C(=O)N2CCN(S(=O)(=O)c3cc4c5c(c3)CCC(=O)N5CCC4)CC2)c1
13 | 657 s | Cc1cc(=O)n(CC(=O)Nc2ccccc2C)c(N2CCOCC2)n1
14 | 1100 s | CCCN1C(=O)COc2ccc(-c3noc(-c4ccc(OC)cc4OC)n3)cc21
15 | 757 s | O=C(Cc1nc(-c2ccccc2)n[nH]1)Nc1ccc(F)c(F)c1
16 | 974 s | CCC(=O)Nc1cc2c(cc1Sc1ccc(OC)cc1)n(C)c(=O)n2C
17 | 730 s | O=C(Nc1nnc(C2CC(=O)N(c3ccc(F)cc3)C2)o1)c1cccc(F)c1 (stereo unspecified)
18 | 714 s | CCN1c2ccc(F)cc2C(=O)NC12CCN(C(=O)c1ccc(F)cc1)CC2
19 | 646 s | O=C(NCc1ccc(F)cc1)c1ccc2ncnc(N3CCCC3)c2c1
20 | 736 s | CSc1nnc(-c2nn(C)c3c2CN(C(=O)Cc2ccc(C)cc2)CC3)n1C
21 | 1010 s | CCn1c(C(=O)N(C)C2CCCCC2)cc2c(=O)oc3ccccc3c21
22 | 658 s | CCN(CC)S(=O)(=O)c1ccc2c(c1)cc(C(=O)NCCC(C)N1CCCC1)n2C (stereo unspecified)

Row | RP-LC retention time | SMILES
23 | 777 s | COc1ccc(-c2nc(N3CCCCC3)c3ccccc3n2)cc1
24 | 887 s | O=C(NCC1(c2cccs2)CC1)c1ccc(F)c(F)c1
25 | 695 s | O=C(Nc1ccccc1Cl)Nc1c(-c2ccc(F)cc2)nc2ccccn12
26 | 904 s | CCn1c(C)c(-c2nc(C3CC3)no2)c(S(=O)(=O)N2CCC(C)CC2)c1C
27 | 964 s | COc1ccccc1C(=O)Nc1cccc(Cl)c1
28 | 668 s | Cc1ccc(CNC(=O)c2cc3c(=O)n(C)ccc3n2C)o1
29 | 703 s | CCOc1ccc2nc(NS(=O)(=O)c3ccc4c5c(cccc35)C(=O)N4)sc2c1
30 | 703 s | CN1CCCCCC(O)c2cc(C(=O)NCCC3=CCCCC3)ccc21 (stereo unspecified)
31 | 960 s | O=C(CN1c2ccc(F)cc2-c2ccccc2S1(=O)=O)NCCc1ccccc1
32 | 951 s | CCOc1ccc(-c2noc(C3CC(=O)N(c4ccc5c(c4)OCO5)C3)n2)cc1 (stereo unspecified)
33 | 631 s | CCOC(=O)C1=C(C)NC2=C(C(=O)C(C(=O)OC)C(C)C2)C1c1ccc(N(C)C)cc1 (stereo unspecified)
34 | 598 s | Cc1cc(=O)n(CC(=O)Nc2ccc(F)c(F)c2)c(N)n1
35 | 1010 s | COc1cc(C(=O)Nc2sc3c(c2C(N)=O)CCC(C)C3)cc(OC)c1OC (stereo unspecified)
36 | 928 s | CSc1cccc(NC(=O)Cn2c(=O)cc(-c3nc(C(C)C)no3)c3ccccc32)c1
37 | 879 s | O=C(Nc1ccc2c(c1)CCCN2C(=O)C1CC1)c1cc(Br)ccc1Cl
38 | 1170 s | O=C(CCc1ccccc1)Nc1nc(-c2cccc3ccccc23)cs1
39 | 777 s | CCNC(=O)c1sc2nc(-c3ccc(F)cc3)c(NCCOC)n2c1C
40 | 594 s | COc1ccc(S(=O)(=O)N2CCN=C2SCc2cccnc2)cc1
41 | 967 s | CC1CN(CC(=O)NCc2ccc3c(c2)OCO3)c2ccccc2S1 (stereo unspecified)
42 | 695 s | CCOC(=O)c1[nH]c(C)c(CCC(=O)N2CCC(C(=O)NCCc3c(C)noc3C)CC2)c1C
43 | 674 s | CNC(=O)c1ccc(-c2nc3cc(NS(=O)(=O)c4ccc(F)c(Cl)c4)ccc3n2C)cc1
44 | 706 s | Cc1nnc(-c2ccc3c(c2)OCO3)o1

Row | RP-LC retention time | SMILES
45 | 1160 s | O=C(c1cccn1Cc1noc(-c2ccc(Cl)cc2)n1)N1CCCCCC1
46 | 584 s | CC(=O)c1ccc(Nc2c(C(=O)N3CCCC3)cnc3nc(C)ccc23)cc1
47 | 715 s | COc1ccccc1-c1nc2cnccn2c1NCCC(=O)NC1CCCCCC1
48 | 1030 s | O=C(C1CCN(S(=O)(=O)c2ccc(-c3noc(C4CCCC4)n3)cc2)CC1)N1CCCC1
49 | 941 s | CC(C)CN1CCCCc2cc(C(=O)NC3CCS(=O)(=O)C3)sc21 (stereo unspecified)
50 | 1230 s | CCOc1nc2ccccc2nc1N1CCCC(C(=O)Nc2cccc3ccccc23)C1 (stereo unspecified)
51 | 807 s | CCOC(=O)c1sc(NC(=O)C2CCCCN2S(C)(=O)=O)cc1C (stereo unspecified)
52 | 870 s | Cc1c(S(=O)(=O)N2CCC(Cc3ccccc3)CC2)c(=O)n(C)c(=O)n1C
53 | 587 s | CCC(=O)Nc1ccc2c(c1)nc(CN1CCOCC1)n2C(C)C
54 | 783 s | O=C(Nc1cccc(F)c1)N1CCN(c2ncccc2-c2nnc(C3CC3)o2)CC1
55 | 744 s | O=C(Cn1c(=O)c2nncn2c2ncccc21)N1CCN(c2ccc(Cl)cc2)CC1
56 | 752 s | CCC(=O)Nc1nc(-c2ccc3c(c2)N(CC)C(=O)CO3)cs1
57 | 599 s | CCN1CCCC1CNC(=O)c1nnc(-c2ccc(S(=O)(=O)N3CCOCC3)cc2)o1 (stereo unspecified)
58 | 1160 s | CCc1nc2cc(-c3noc(-c4cncc(Br)c4)n3)ccc2o1
59 | 603 s | COc1ccc(C(=O)N2CCCCC2c2nncn2C)cn1 (stereo unspecified)
60 | 755 s | COc1ccc(-c2nnc(Cc3nc(-c4cccnc4)no3)o2)cc1
61 | 695 s | CCn1ccc(C(=O)N2CC(c3nc(-c4ccsc4)nn3C)C2)n1
62 | 702 s | Cc1cc2[nH]c(C(=O)Nc3cc(F)ccc3F)c(CN3CCCC3)c2s1
63 | 785 s | Cc1cc(N2CCN(S(=O)(=O)c3cc(F)ccc3C)CC2)nc(N2CCCCC2)n1
64 | 608 s | O=C(c1cc(-c2ccncc2)n[nH]1)N1CCCC(C(=O)N2CCc3ccccc3C2)C1 (stereo unspecified)
65 | 627 s | O=C(NCc1ccc2c(c1)OCO2)C1CCN(c2cn[nH]c(=O)c2)C1 (stereo unspecified)

Row | SMILES | RP-LC retention time
66 | CCc1ccc(-n2nnc(C(=O)N3CCC4(CC3)OCCO4)c2-c2cccnc2)cc1 | 783 s
